Test results: article PMC2918394 (Journal of medicinal chemistry, 2010)

Columns and labels:
SARS-CoV PLpro = SARS-CoV PLpro (Severe acute respiratory syndrome coronavirus, UniProt P0C6X7); type: biochemical
SARS-CoV = type: cell-based; details: SARS-CoV infected Vero E6 cells

CC(C)(c1cccc2ccccc12)N1CCC(C(=O)NCc2ccc3c(c2)OCO3)CC1 [Compound 15k, 1-[1-Methyl-1-(1-naphthyl)ethyl]-4-[3,4-(methylenedioxy)benzylamino]carbonylpiperidine]
PLpro inhibitory activity (in words) (SARS-CoV PLpro): inactive

COc1ccc(CNC(=O)C2CCN([C@H](C)c3cccc4ccccc34)CC2)cc1 [Compound 15c, 1-[(R)-1-(1-Naphthyl)ethyl]-4-(4-methoxybenzylamino)carbonylpiperidine]
potency enhancement over 3 (SARS-CoV PLpro): > 170 fold

COc1ccccc1CNC(=O)C1CCN([C@H](C)c2cccc3ccccc23)CC1 [Compound 15a, 1-[(R)-1-(1-Naphthyl)ethyl]-4-(2-methoxybenzylamino)carbonylpiperidine]
reduction in potency over 15b and 15c (SARS-CoV PLpro): 3 fold

COc1ccccc1CNC(=O)C1CCN(Cc2cccc3ccccc23)CC1 [Compound 7a, 1-[(1-Naphthyl)methyl]-4-[(2-methoxybenzylamino)carbonyl]piperidine]
PLpro inhibitory activity (in words) (SARS-CoV PLpro): very poor inhibitory activity

COc1ccc(CNC(=O)C2CCN(Cc3cccc4ccccc34)CC2)cc1 [Compound 3]
antiviral activity (in words) (SARS-CoV): does not show any antiviral activity

1-[1-(2-Naphthyl)ethyl]-4-(4-methoxybenzylamino)carbonylpiperazine [Compound 20]
PLpro inhibitory activity (in words) (SARS-CoV PLpro): no activity against PLpro

COc1cccc(CNC(=O)C2CCN([C@@H](C)c3ccc4ccccc4c3)CC2)c1 [Compound 15f, 1-[(S)-1-(2-Naphthyl)ethyl]-4-(3-methoxybenzylamino)carbonylpiperidine]
more potent than the 2(R)-derivative 15d (SARS-CoV PLpro): 2 fold | antiviral activity (in words) (SARS-CoV): no antiviral activity
